Reference: US20210100869A1, “COMPOSITIONS AND METHODS OF USING SAME FOR TREATING AMYOTROPHIC LATERAL SCLEROSIS (ALS)” (Immunity Pharma Ltd., priority 2018, published 2021)
Residues, ends and D or L forms follow the SMILES beside them.

How the values were obtained:
[1] = tested on: ALS patients; assay: Open-label Phase 1/2a clinical trial, safety and tolerability (adverse events); format: in vivo, human; conditions: eight patients, IV daily, 1.7 mg/kg escalated to 3.2 mg/kg
Procedure: Dose-limiting Toxicity (DLT): DLT is defined as a ≥Grade 3 per subject which is IPL344 drug-related adverse event (using CTCAE Version v.4.03) occurring at any dosing, excluding: • Grade 3 adverse event of hypersensitivity (defined as sinus tachycardia, heavy breathing or rash along the veins or elsewhere) • A transient (resolving within 6 hours of onset) Grade 3 study drug-related adverse event.
Adverse events (AE)—The FDA defines an AE as “any untoward medical occurrence associated with the use of a drug in humans, whether or not considered drug related” (US Department of Health and Human Services, December 2012). Medical conditions present before first administration of IPL344 are considered pre-existing conditions and are documented as medical history. A new condition, event or the worsening of a pre-existing condition is considered an AE from the first dose of administration.
AEs are coded by CTCAE Version v4.03.
Safety Analysis: The Safety population is based on participants having received at least one dose of IPL-344 (exposed population), including participants prematurely withdrawn. AEs are classified by system-organ class and preferred term and then summarized by number and percentage of participants experiencing AEs. […] The IPL344 DLT and maximal tolerated dose (MTD) are assessed and presented. […]

[2] = tested on: ALS patients; conditions: estimated moderate effect; cited from earlier work

| Structure (SMILES) | Safety and tolerability profile ([1]; 28 days safety study) | Drug-related adverse events [1] | Extension in patient survival [2] |
| --- | --- | --- | --- |
| CC(C)C[C@H](NC(=O)[C@@H]1CCCN1C(=O)[C@@H]1CCCN1C(=O)[C@@H](N)CC(C)C)C(=O)N1CCC[C@H]1C(=O)N[C@@H](Cc1ccc(O)cc1)C(=O)N1CCC[C@H]1C(=O)O [IPL344, LPPLPYP] (H-LPPLPYP-OH) | favorable safety and tolerability profile | No drug-related adverse events | – |
| CC1=NN(c2ccccc2)C(=O)C1 [edaravone] | – | – | three months extension in patient survival |
